Results on five substances are retold here after publication PMC12608622, “Novel Ruthenacarborane–NSAID Conjugates” (Molecules, 2025).

Holding throughout (assay): fluorescence-based COX inhibitor assay kit
Format in all cases: biochemical

Assay [1] deals with T1, COX-2 (Homo sapiens, UniProt P35354).
T1 construct: gene PTGS2; construct not described
T1 sequence (P35354 18-604): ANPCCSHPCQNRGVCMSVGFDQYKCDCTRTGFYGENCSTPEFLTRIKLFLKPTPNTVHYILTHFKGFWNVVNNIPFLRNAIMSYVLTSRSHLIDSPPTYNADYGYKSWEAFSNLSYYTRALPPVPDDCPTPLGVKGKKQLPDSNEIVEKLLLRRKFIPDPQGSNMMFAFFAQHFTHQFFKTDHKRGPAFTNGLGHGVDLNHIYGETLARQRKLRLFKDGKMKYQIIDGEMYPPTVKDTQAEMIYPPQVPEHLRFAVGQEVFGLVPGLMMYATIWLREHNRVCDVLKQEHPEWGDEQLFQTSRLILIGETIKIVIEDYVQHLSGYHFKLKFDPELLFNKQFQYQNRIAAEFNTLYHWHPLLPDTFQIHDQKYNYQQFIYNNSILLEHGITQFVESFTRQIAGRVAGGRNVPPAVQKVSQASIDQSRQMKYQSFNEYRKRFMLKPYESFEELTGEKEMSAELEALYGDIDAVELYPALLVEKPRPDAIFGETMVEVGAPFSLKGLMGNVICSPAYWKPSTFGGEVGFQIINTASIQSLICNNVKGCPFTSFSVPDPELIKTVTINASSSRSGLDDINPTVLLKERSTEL
Conditions: […] compound.

Assay [2] concerns the target T1, COX-2.
Another assay concerns the target T2, COX-1 (Ovis aries, UniProt P05979).
T2 construct: gene PTGS1; construct not described
T2 sequence (P05979 25-600): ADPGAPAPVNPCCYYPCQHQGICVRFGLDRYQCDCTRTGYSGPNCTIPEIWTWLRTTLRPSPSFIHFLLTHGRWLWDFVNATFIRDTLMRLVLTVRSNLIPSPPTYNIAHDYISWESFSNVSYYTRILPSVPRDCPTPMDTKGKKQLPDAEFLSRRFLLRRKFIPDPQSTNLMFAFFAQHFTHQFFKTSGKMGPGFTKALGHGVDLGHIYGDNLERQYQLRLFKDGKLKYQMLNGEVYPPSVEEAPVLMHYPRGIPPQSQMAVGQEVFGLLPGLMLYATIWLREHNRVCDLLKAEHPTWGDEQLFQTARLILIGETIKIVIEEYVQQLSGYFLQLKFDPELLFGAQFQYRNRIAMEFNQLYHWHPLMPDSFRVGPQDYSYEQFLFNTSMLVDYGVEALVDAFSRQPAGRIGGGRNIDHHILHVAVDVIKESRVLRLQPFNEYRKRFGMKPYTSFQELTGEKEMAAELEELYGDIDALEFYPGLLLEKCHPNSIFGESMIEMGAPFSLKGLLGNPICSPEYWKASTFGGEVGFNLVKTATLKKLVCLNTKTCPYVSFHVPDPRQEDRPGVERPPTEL
Conditions: […] compound. From the text:
fluorescence-based COX inhibitor assay kit on COX-1

As a reminder, the IC50 is the concentration at which inhibition is half-maximal. Low values mean greater potency in that assay, high ones weaker potency in that assay.

With “Cesium 1-(1′-hydroxymethyl)-nido-carborane [2a]”, the “% Inhibition @ 100 μM / COX-2” value on COX-2 [1] worked out at 38%.

Substance “Cesium 1-(2′-hydroxyethyl)-nido-carborane [2b]” registered a half-inhibitory concentration (IC50) against COX-2 [2] of 84.1 µM.

As for “[Ru(η^6-p-cymene)-1-{methyl (R/S)-2-[4-(2-fluorobiphenyl-4-yl)propanoic acid ester]-closo-C2B9H10}] [4a]”, the “% Inhibition @ 100 μM / COX-1” value on COX-1 was found to be 33%.

Regarding “[Ru(η^6-p-cymene)-2-{ethyl (R/S)-2-[4-(2-fluorobiphenyl-4-yl)propanoic acid ester]-closo-C2B9H10}] [4b]”, the “% Inhibition @ 100 μM / COX-1” value on COX-1 amounted to 40%.

In the case of “[Ru(η^6-p-cymene)-2-{ethyl (R/S)-2-[4-(2-propylphenyl)propanoic acid ester]-closo-C2B9H10}] [6b]”, the “% Inhibition @ 100 μM / COX-1” value at COX-1 is reported as 30%.
